From ChEMBL document CHEMBL4411274, “Recent advances of tetrazole derivatives as potential anti-tubercular and anti-malarial agents” (Eur J Med Chem, 2019)
Values after ≈ are worked out from the molar mass of the structure shown.

Tests used:
[1] = tested on: Mycobacterium tuberculosis; experiment: Antibacterial activity against Mycobacterium tuberculosis CNCTC My 331/88; format: functional
Mycobacterium kansasii [2] = experiment: Antibacterial activity against Mycobacterium kansasii CNCTC My 235/80; format: functional
Mycobacterium kansasii [3] = experiment: Antibacterial activity against Mycobacterium kansasii isolate 6509/96; format: functional
Mycobacterium avium = experiment: Antibacterial activity against Mycobacterium avium CNCTC My 330/88; format: functional
[4] = tested on: Mycobacterium tuberculosis; experiment: Antibacterial activity against Mycobacterium tuberculosis H37Rv by resazurin dye-based assay; format: functional
Falcipain 2 = biological target: T1, Falcipain 2 (Plasmodium falciparum, UniProt Q9N6S8); experiment: Inhibition of Plasmodium falciparum falcipain-2 preincubated for 30 mins followed by Z-Leu-Arg-AMC substrate addition and measured up to 15 mins by spectrofluorometric analysis
T1 sequence (Q9N6S8 whole entry): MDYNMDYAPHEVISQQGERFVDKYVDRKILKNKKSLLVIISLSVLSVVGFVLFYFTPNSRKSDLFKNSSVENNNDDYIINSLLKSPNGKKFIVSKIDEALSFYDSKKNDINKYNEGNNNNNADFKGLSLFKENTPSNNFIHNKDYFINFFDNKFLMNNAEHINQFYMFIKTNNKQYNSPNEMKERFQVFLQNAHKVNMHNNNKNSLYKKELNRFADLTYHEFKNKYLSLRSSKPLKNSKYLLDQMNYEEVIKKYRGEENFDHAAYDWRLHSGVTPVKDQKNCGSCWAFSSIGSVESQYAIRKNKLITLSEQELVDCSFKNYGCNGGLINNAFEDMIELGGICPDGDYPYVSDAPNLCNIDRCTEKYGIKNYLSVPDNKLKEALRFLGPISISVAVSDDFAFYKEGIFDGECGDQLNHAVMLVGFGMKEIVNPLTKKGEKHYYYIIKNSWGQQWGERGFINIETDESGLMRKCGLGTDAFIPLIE

[5] = biological target: T2, Cysteine protease falcipain-3 (Plasmodium falciparum, UniProt Q9NAW4); experiment: Inhibition of Plasmodium falciparum falcipain-3 preincubated for 30 mins followed by Z-Leu-Arg-AMC substrate addition and measured up to 15 mins by spectrofluorometric analysis
T2 sequence (Q9NAW4 whole entry): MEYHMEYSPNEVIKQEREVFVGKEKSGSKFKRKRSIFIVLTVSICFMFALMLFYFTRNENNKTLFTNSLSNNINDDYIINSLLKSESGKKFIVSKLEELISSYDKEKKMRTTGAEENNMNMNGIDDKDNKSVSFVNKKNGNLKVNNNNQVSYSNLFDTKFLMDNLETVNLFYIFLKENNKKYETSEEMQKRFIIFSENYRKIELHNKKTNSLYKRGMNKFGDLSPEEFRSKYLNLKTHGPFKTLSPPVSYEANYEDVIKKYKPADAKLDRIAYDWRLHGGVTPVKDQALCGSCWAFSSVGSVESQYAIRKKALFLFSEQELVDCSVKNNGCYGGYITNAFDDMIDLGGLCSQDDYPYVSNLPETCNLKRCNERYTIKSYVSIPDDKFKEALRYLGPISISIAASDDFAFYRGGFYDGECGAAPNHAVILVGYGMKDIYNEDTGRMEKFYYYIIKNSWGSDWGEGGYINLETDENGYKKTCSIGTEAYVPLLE

Plasmodium falciparum = experiment: Antimalarial activity against Plasmodium falciparum K2 infected in human erythrocytes assessed as parasitemia after 48 hrs by YOYO-1 staining-based flow cytometric analysis; format: functional, organism-based; conditions: K2, 48 h
CHO-K1 = experiment: Cytotoxicity against CHOK1 cells after 24 hrs by MTT assay; format: cell-based; conditions: Cricetulus griseus, CHO-K1, 24 h
[6] = tested on: Mycobacterium tuberculosis; experiment: Antibacterial activity against Mycobacterium tuberculosis H37Rv by MABA; format: functional

Which results are given for Clc1ccc(-n2nnnc2SCc2ccccc2)cc1?
MIC [1]: 8 to 250 µg/mL (≈ 26.4 to 826 µM); MIC (Mycobacterium kansasii [2]): 8 to 250 µg/mL (≈ 26.4 to 826 µM); MIC (Mycobacterium kansasii [3]): 8 to 250 µg/mL (≈ 26.4 to 826 µM); MIC (Mycobacterium avium): 8 to 250 µg/mL (≈ 26.4 to 826 µM)

O=C(Cn1nnnc1-c1ccccc1)NN1C(=O)C(Cl)C1c1ccc(Cl)cc1 (configuration not stated) was tested. Which MIC [4] did it give?
Its MIC is > 6.25 µg/mL.

Which IC50 (Falcipain 2) does the source give for COc1ccc(NC(=O)Cn2nnc(-c3ccccc3NC(=O)c3cc(OC)cc(OC)c3)n2)cc1 here?
The IC50 was 6.67 to 43.9 µM.

What about the IC50 [5] of the same compound?
The IC50 was 6.67 to 43.9 µM.

And the IC50 (Plasmodium falciparum)?
The IC50 was > 10 µM.

COc1cc(-c2nnnn2S(=O)(=O)c2ccc(OC(F)(F)F)cc2)ccc1OCC(O)(Cn1cncn1)c1ccc(F)cc1F (configuration not stated) was tested. Which IC50 (CHO-K1) did it give?
The IC50 was > 150 µg/mL.

How did the MIC [6] turn out when COc1cc(-c2nnnn2S(=O)(=O)c2ccc(C(C)(C)C)cc2)ccc1OCC(O)(Cn1cncn1)c1ccc(Cl)cc1Cl (configuration not stated) was run?
Its MIC is 1.56 to 12.5 µg/mL (≈ 2.37 to 19 µM).

And the IC50 (CHO-K1)?
The IC50 was > 150 µg/mL.

CN(C)c1ccc(C2C(Cl)C(=O)N2NC(=O)Cn2nnnc2-c2ccccc2)cc1 (configuration not stated) was tested. Which MIC [4] did it give?
The MIC was 0.156 µg/mL (≈ 0.366 µM).

Which results are given for CCCCOc1ccc(-c2nnn(CC(=O)c3ccc(Cl)cc3)n2)cc1?
IC50 (Falcipain 2): 6.67 to 43.9 µM; IC50 [5]: 6.67 to 43.9 µM; IC50 (Plasmodium falciparum): > 10 µM

For COc1cc(-c2nnnn2S(=O)(=O)c2ccccc2)ccc1OCC(O)(Cn1cncn1)c1ccc(Cl)cc1Cl (configuration not stated), which MIC [6] is on record?
The MIC was 25 µg/mL (≈ 41.5 µM).

And the IC50 (CHO-K1)?
The IC50 was > 150 µg/mL.

For C[C@]12CC[C@@H]3c4ccc(OCCCCCCCSc5nnnn5-c5ccccc5)cc4CC[C@H]3[C@@H]1CCC2=O, which MIC [1] is on record?
Its MIC is ≥ 500 µg/mL.

And the MIC (Mycobacterium kansasii [2])?
The MIC was ≥ 500 µg/mL.

What about the MIC (Mycobacterium kansasii [3]) of the same compound?
Its MIC is ≥ 500 µg/mL.

What about the MIC (Mycobacterium avium) of the same compound?
Its MIC is ≥ 500 µg/mL.

Which MIC [4] does the source give for O=C(Cn1nnnc1-c1ccccc1)NN1C(=O)C(Cl)C1c1ccc([N+](=O)[O-])cc1 (configuration not stated) here?
The MIC was > 6.25 µg/mL.

What does the source list for COc1cc(-c2nnnn2S(=O)(=O)c2ccc([N+](=O)[O-])cc2)ccc1OCC(O)(Cn1cncn1)c1ccc(Cl)cc1Cl (configuration not stated)?
MIC [6]: 1.56 to 12.5 µg/mL (≈ 2.41 to 19.3 µM); IC50 (CHO-K1): > 150 µg/mL

Cc1cc(NC(=O)Cn2nnc(-c3ccc(N)cc3)n2)no1 was tested. Which IC50 (Falcipain 2) did it give?
Its IC50 is 6.67 to 43.9 µM.

And the IC50 [5]?
Its IC50 is 6.67 to 43.9 µM.

What about the IC50 (Plasmodium falciparum) of the same compound?
The IC50 was > 10 µM.

With CCCCOc1ccc(-c2nnn(CC(=O)Nc3c(C)ccc4ccccc34)n2)cc1 as the compound, how does the IC50 (Falcipain 2) read?
The IC50 was 6.67 to 43.9 µM.

And the IC50 [5]?
The IC50 was 6.67 to 43.9 µM.

What about the IC50 (Plasmodium falciparum) of the same compound?
The IC50 was > 10 µM.

COc1ccc(C(=O)Nc2ccc(-c3nnn(CC(=O)Nc4cc(C)on4)n3)cc2)cc1 was tested. Which IC50 (Falcipain 2) did it give?
The IC50 was 6.67 to 43.9 µM.

And the IC50 [5]?
Its IC50 is 6.67 to 43.9 µM.

And the IC50 (Plasmodium falciparum)?
Its IC50 is > 10 µM.

How did the MIC [6] turn out when COc1cc(-c2nnnn2S(=O)(=O)c2ccc(Br)cc2)ccc1OCC(O)(Cn1cncn1)c1ccc(F)cc1F (configuration not stated) was run?
The MIC was 3.12 µg/mL (≈ 4.81 µM).

And the IC50 (CHO-K1)?
The IC50 was > 150 µg/mL.

COc1cc(-c2nnnn2S(=O)(=O)c2ccc(C)cc2)ccc1OCC(O)(Cn1cncn1)c1ccc(F)cc1F (configuration not stated) was tested. Which IC50 (CHO-K1) did it give?
The IC50 was > 150 µg/mL.

For COc1cc(-c2nnnn2S(=O)(=O)c2ccc(Br)s2)ccc1OCC(O)(Cn1cncn1)c1ccc(Cl)cc1Cl (configuration not stated), which MIC [6] is on record?
The MIC was 1.56 µg/mL (≈ 2.27 µM).

And the IC50 (CHO-K1)?
Its IC50 is > 150 µg/mL.

With COc1cc(-c2nnnn2S(=O)(=O)c2ccc(C(C)(C)C)cc2)ccc1OCC(O)(Cn1cncn1)c1ccc(F)cc1F (configuration not stated) as the compound, how does the MIC [6] read?
The MIC was 1.56 µg/mL (≈ 2.49 µM).

And the IC50 (CHO-K1)?
The IC50 was > 150 µg/mL.

What does the source list for Sc1nnnn1-c1ccc(Cl)c(Cl)c1?
MIC [1]: 250 to 500 µg/mL (≈ 1010 to 2020 µM); MIC (Mycobacterium kansasii [2]): 250 to 500 µg/mL (≈ 1010 to 2020 µM); MIC (Mycobacterium kansasii [3]): 250 to 500 µg/mL (≈ 1010 to 2020 µM); MIC (Mycobacterium avium): 250 to 500 µg/mL (≈ 1010 to 2020 µM)

What does the source list for COc1cc(-c2nnnn2S(=O)(=O)c2ccc(OC(F)(F)F)cc2)ccc1OCC(O)(Cn1cncn1)c1ccc(Cl)cc1Cl (configuration not stated)?
MIC [6]: 1.56 to 12.5 µg/mL (≈ 2.27 to 18.2 µM); IC50 (CHO-K1): > 150 µg/mL

Which results are given for COc1ccc(-c2ccc(-c3nnn(CC(=O)c4ccccc4)n3)cc2)cc1?
IC50 (Falcipain 2): 6.67 to 43.9 µM; IC50 [5]: 6.67 to 43.9 µM; IC50 (Plasmodium falciparum): > 10 µM

COc1cc(-c2nnnn2S(=O)(=O)c2ccc(C)cc2)ccc1OCC(O)(Cn1cncn1)c1ccc(Cl)cc1Cl (configuration not stated) was tested. Which MIC [6] did it give?
The MIC was 1.56 to 12.5 µg/mL (≈ 2.53 to 20.3 µM).

And the IC50 (CHO-K1)?
The IC50 was > 150 µg/mL.

Which MIC [6] does the source give for COc1cc(-c2nnnn2S(=O)(=O)c2ccc(F)cc2)ccc1OCC(O)(Cn1cncn1)c1ccc(Cl)cc1Cl (configuration not stated) here?
The MIC was 1.56 to 12.5 µg/mL (≈ 2.51 to 20.1 µM).

And the IC50 (CHO-K1)?
The IC50 was > 150 µg/mL.

Which IC50 (Falcipain 2) does the source give for COc1ccc(C(=O)Cn2nnc(-c3ccccc3NC(=O)c3ccncc3)n2)cc1 here?
The IC50 was 6.67 to 43.9 µM.

What about the IC50 [5] of the same compound?
Its IC50 is 6.67 to 43.9 µM.

And the IC50 (Plasmodium falciparum)?
The IC50 was > 10 µM.

How did the MIC [4] turn out when O=C(Cn1nnnc1-c1ccccc1)NN1C(=O)C(Cl)C1c1ccc(Br)cc1 (configuration not stated) was run?
Its MIC is > 6.25 µg/mL.
